For 13 compounds, TGI and GI50 results are on record in PubChem BioAssay (NCI).

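Briefly, cells in 96-well plates were exposed to five compound concentrations for 48 h, and endpoints were estimated by linear interpolation. GI50 = concentration required for 50% inhibition of growth. TGI marks complete inhibition of growth.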 Some results are limits rather than exact numbers.

Among the test systems are DMS 273 small cell lung; KM12 colon; M14 melanoma; M19-MEL melanoma; OVCAR-4 ovarian; SNB-19 CNS; SNB-78 CNS; HS 578T breast; MDA-MB-231 breast; MDA-MB-435; NCI/ADR-RES ovarian.
What all share (experiment): inhibition of tumour cell growth, NCI panel, 48 h

On to `COc1ccc(CN2C(=O)[C@@H]3Cc4c(OC)c(C)c(OC)c(OC)c4[C@H](/C2=C\c2cc(OC)c(OC)c(C)c2OC)N3C(=O)OC(C)C)cc1`, for which the TGI with DMS 273 small cell lung, with KM12 colon, in the assay with M14 melanoma, in the assay with M19-MEL melanoma, in the assay with OVCAR-4 ovarian and in the assay on SNB-19 CNS was more than 100 µM throughout.

For the compound `N#C/C(=C\c1c(O)cc(O)cc1O)C(N)=O`, the TGI in the assay on DMS 273 small cell lung, with KM12 colon, in the assay on M14 melanoma, with OVCAR-4 ovarian, with SNB-19 CNS and in the assay with SNB-78 CNS was more than 100 µM in each case.

With `CCC12C=CCN(CCc3c([nH]c4ccccc34)/C=C\1)C2` (stereo unspecified), the TGI in the assay with DMS 273 small cell lung, in the assay on KM12 colon, in the assay on M14 melanoma, with M19-MEL melanoma, in the assay on OVCAR-4 ovarian and in the assay with SNB-19 CNS was more than 100 µM throughout.

Take `Cc1ccccc1NC(=O)Cc1nc2ccccc2s1`: the TGI is 37.6 µM in the assay with DMS 273 small cell lung; 31.3 µM in the assay with KM12 colon; 25.2 µM with M14 melanoma; 32.5 µM in the assay with OVCAR-4 ovarian; more than 100 µM in the assay on SNB-19 CNS; 32.6 µM in the assay with SNB-78 CNS.

Consider `C=C1c2nc3ccccc3n2C=C(c2cccc(Cl)c2)N1Cc1ccc(OC)cc1`, for which the GI50 in the assay on HS 578T breast was 0.565 µM; in the assay on KM12 colon, 1.76 µM; with M14 melanoma it was 0.589 µM; in the assay on MDA-MB-231 breast it was 0.964 µM; in the assay on MDA-MB-435, 0.158 µM; with NCI/ADR-RES ovarian, 0.441 µM. For the same compound, the values for the GI50 in the assay on OVCAR-4 ovarian and with SNB-19 CNS were 1.83 µM and 1.04 µM, respectively. The TGI in the assay on HS 578T breast was more than 100 µM; in the assay on KM12 colon, 16.6 µM; with M14 melanoma, more than 44.2 µM; in the assay with MDA-MB-231 breast, more than 100 µM; in the assay with NCI/ADR-RES ovarian, 5.49 µM; with OVCAR-4 ovarian, more than 100 µM. The TGI in the assay on SNB-19 CNS was more than 100 µM.

Turning to `NS(=O)(=O)c1ccc(N=Nc2ccc[nH]c2=O)cc1`, the TGI in the assay with HS 578T breast, in the assay on KM12 colon, with M14 melanoma, with MDA-MB-231 breast, in the assay with MDA-MB-435 and with NCI/ADR-RES ovarian was more than 100 µM in each case. The TGI with OVCAR-4 ovarian and in the assay on SNB-19 CNS was more than 100 µM each time.

Turning to `CCc1nc(C)cn1C(=O)OCc1nc2nc(Cl)nc(N3CCOCC3)c2[nH]1`, the GI50 with HS 578T breast is 1.74 µM; in the assay with KM12 colon, 1.56 µM; with M14 melanoma, 1.27 µM; in the assay on MDA-MB-231 breast, 1.39 µM; in the assay on MDA-MB-435, 1.36 µM; with NCI/ADR-RES ovarian, 2.64 µM. In addition, the GI50 in the assay on OVCAR-4 ovarian was 1.49 µM; with SNB-19 CNS, 1.43 µM. The TGI with HS 578T breast turned out to be 4.89 µM; in the assay on KM12 colon, 3.29 µM; in the assay with M14 melanoma it was 3.1 µM; in the assay on MDA-MB-231 breast, 2.83 µM; with MDA-MB-435 it was 2.71 µM; in the assay on NCI/ADR-RES ovarian, 9.02 µM. In addition, the figures for the TGI in the assay on OVCAR-4 ovarian and in the assay with SNB-19 CNS were 2.93 µM and 2.84 µM, respectively.

Regarding `O=S(=O)(NC1=NCCN1C(=S)SN1CCn2c1nsc2=S)c1ccc(Oc2ccccc2)cc1`, the GI50 in the assay with HS 578T breast is 27.5 µM; with KM12 colon, 39.7 µM; with M14 melanoma it was more than 100 µM; in the assay with MDA-MB-231 breast, 37.8 µM; in the assay with MDA-MB-435 it was 30.4 µM; in the assay on NCI/ADR-RES ovarian, 77.4 µM. Besides, the GI50 with OVCAR-4 ovarian was 79.1 µM; with SNB-19 CNS it was more than 100 µM. The TGI in the assay with HS 578T breast, with KM12 colon, in the assay on M14 melanoma, in the assay with MDA-MB-231 breast, in the assay with MDA-MB-435 and in the assay with NCI/ADR-RES ovarian was more than 100 µM throughout. In addition, the TGI in the assay with OVCAR-4 ovarian and with SNB-19 CNS was more than 100 µM in each case.

For the compound `COc1cc2c(cc1OC)C(C(CCCCCC(CCC(C)C)C1NCCc3cc(OC)c(OC)cc31)CCC(C)C)NCC2` (stereo unspecified), the GI50 is 1.42 µM in the assay on HS 578T breast; 0.438 µM in the assay with KM12 colon; 0.449 µM with M14 melanoma; 0.791 µM in the assay on MDA-MB-231 breast; 0.516 µM in the assay with MDA-MB-435; 1.44 µM in the assay on NCI/ADR-RES ovarian. Also, the GI50 in the assay with OVCAR-4 ovarian was 1.54 µM; in the assay on SNB-19 CNS, 1.45 µM. For the same compound, the TGI with HS 578T breast came to 3.43 µM; in the assay with KM12 colon, 1.26 µM; in the assay with M14 melanoma, 1.51 µM; in the assay on MDA-MB-231 breast, 2.41 µM; in the assay with MDA-MB-435, 2.25 µM; in the assay on NCI/ADR-RES ovarian, 2.94 µM. Also, the figures for the TGI in the assay with OVCAR-4 ovarian and in the assay with SNB-19 CNS were 2.92 µM and 2.87 µM, respectively.

Take `N#Cc1c2ccccc2c(Cc2ccc3c(c2)OCCOCCOCCOCCOCCO3)c2ccccc12`: the TGI in the assay with DMS 273 small cell lung came out at 17.8 µM; with KM12 colon it was 17.9 µM; in the assay on M14 melanoma, 18 µM; in the assay with OVCAR-4 ovarian it was 17.4 µM; in the assay with SNB-19 CNS it was 24.5 µM; with SNB-78 CNS it was 31.9 µM.

Take `O=S1(=O)c2ccccc2N(c2ccccc2)c2nnnn21`: the TGI in the assay on HS 578T breast was more than 100 µM; in the assay with KM12 colon it was more than 100 µM; in the assay on M14 melanoma, 54.5 µM; in the assay on MDA-MB-231 breast, 72.4 µM; in the assay with MDA-MB-435, more than 100 µM; with NCI/ADR-RES ovarian, more than 100 µM. The values for the TGI in the assay on OVCAR-4 ovarian and in the assay on SNB-19 CNS were 70.4 µM and 88.5 µM, respectively.

As for `CC1=CC(=O)N(c2cccc3c(N4C(=O)C=C(C)C4=O)cccc23)C1=O`, the GI50 was 18.6 µM in the assay with HS 578T breast; 11.3 µM in the assay with KM12 colon; 3.9 µM with M14 melanoma; 8.44 µM in the assay on MDA-MB-231 breast; 3.13 µM in the assay on MDA-MB-435; 10.4 µM in the assay with NCI/ADR-RES ovarian. Moreover, the figures for the GI50 in the assay with OVCAR-4 ovarian and in the assay on SNB-19 CNS were 5.18 µM and 53.3 µM, respectively. For the same compound, the TGI in the assay with HS 578T breast was more than 100 µM; with KM12 colon it was 34 µM; in the assay with M14 melanoma it was 19.5 µM; with MDA-MB-231 breast, 22.5 µM; in the assay on MDA-MB-435 it was more than 37.1 µM; with NCI/ADR-RES ovarian it was more than 89 µM. Moreover, the TGI in the assay with OVCAR-4 ovarian is 16.9 µM; with SNB-19 CNS, more than 100 µM.

Turning to `CN(C)NC(=O)/C(=C/c1ccc(Cl)cc1)NC(=O)c1ccccc1`, the TGI in the assay with DMS 273 small cell lung, in the assay on KM12 colon, with M14 melanoma, in the assay with M19-MEL melanoma, in the assay on OVCAR-4 ovarian and in the assay on SNB-19 CNS was more than 100 µM each time.
